Data taken from ChEMBL document CHEMBL1150702, “3,3',5'-Tri-O-methylpiceatannol and 4,3',5'-tri-O-methylpiceatannol: improvements over piceatannol in bioactivity” (J Nat Prod, 1987).
Values after ≈ are worked out from the molar mass of the structure shown. Active and inactive are the calls of the source. The calls are words filed in the database; no cut-off is given here.

Assays:
[1] = Cytotoxicity against human 9KB cells; assay type: functional; conditions: read-out: ED50 (the source's name)
[2] = Cytotoxicity against mouse 9PS cells; assay type: functional; conditions: read-out: ED50 (the source's name)
[3] = test system: Agrobacterium tumefaciens; test: Antitumor activity against Agrobacterium tumefaciens-induced crown gall tumor in potato tubers by potato disk test; assay type: functional
Artemia salina = test: Toxicity in Artemia salina; assay type: organism-based; conditions: in vivo
[4] = In vivo cytotoxicity against mouse 3PS cells at 50 mg/kg relative to control; assay type: functional
Mus musculus = test: In vivo cytotoxicity against mouse 3PS cells up to 200 mg/kg relative to control; assay type: functional, organism-based; parameters: dose 200 mg/kg

SMILES	EC50 [1] [µg/mL]	EC50 [2] [µg/mL]	inhibition (INH) [3] [%]	LC50 (Artemia salina) [ppm]	T/C [4] [%]	Activity (Mus musculus)
COc1cc(/C=C/c2ccc(OC)c(O)c2)cc(OC)c1	< 0.01	0.1 (≈ 0.349 µM)	22	2.8	119	
COc1ccc(C=O)cc1O [ISOVANILLIN]				31		
Oc1cc(O)cc(/C=C/c2ccc(O)c(O)c2)c1 [PICEATANNOL]				278		
COc1cc(C=O)ccc1O [VANILLIN]				31		
COc1cc(/C=C/c2ccc(O)c(OC)c2)cc(OC)c1	0.25 (≈ 0.873 µM)		19	> 1000		inactive
